Test results: patent publication US20130287890A1, “INHIBITOR OF THE PRODUCTION OF ADVANCED GLYCATION END PRODUCTS” (UENO FINE CHEMICALS INDUSTRY, LTD., priority 2012, published 2013)

Tests used:
fluorescent AGEs = experiment: Quantitative determination of fluorescent AGEs after reaction at 37° C. for 42 days; type: biochemical; conditions: for Fluorescent AGEs: 37° C., 42 days
Method: After 0.4 g of a high molecular weight fraction and 8 mL of 6N hydrochloric acid were charged in an ampule and the air in the ampule was replaced with nitrogen, hydrolysis was performed at 110° C. for 16 hours in a heat block. After reaction, 8 mL of 5N sodium hydroxide was added, and pH was adjusted using 1N hydrochloric acid and 1N sodium hydroxide to make pH within a range of 7.2 to 7.6. Then, the solution was filtered through a 0.45 μm filter. Using the thus obtained filtrate as a sample, fluorescent AGEs were quantitatively determined using the following methods. After weighing 2.5 mg of a standard substance perylene, the standard substance perylene was fully dissolved in 10 mL of deaerated ethanol added thereto to prepare a perylene solution. The perylene solution diluted to the concentration of 10 μM was exposed to excitation light with a wavelength of 386 nm and then the area was calculated by measuring a fluorescence intensity ranging from 410 to 600 nm. Meanwhile, the sample was exposed to excitation light with a wavelength of 380 nm and then the area was calculated by measuring a fluorescence intensity ranging from 400 to 600 nm. By considering the area measurement value of the sample as a value relative to the area value of the 10 μM perylene solution, fluorescent AGEs were determined.
(§1) Amino acid or biological protein, carbohydrates and a phosphate buffer solution were charged in a 50 mL polypropylene centrifuge tube in each amount shown in Table 8, followed by sealing and stirring, and then the mixture was reacted in an incubator at 37° C. for 42 days. Next, the reactant was fractionated by centrifugation at 3,000 rpm for 3 hours using an ultrafiltration unit (VIVA SPIN 20, manufactured by Sartorius Corporation). The obtained low molecular weight fraction was used as a sample for determination of 3-DG, while the obtained high molecular weight fraction was used as a sample for the determination of fluorescent AGEs. Amino acid, biological protein and carbohydrates used are as follows:
In the same manner as in Test Example 1, except that the low molecular weight fraction prepared as mentioned above was used as a sample, quantitative determination of 3-DG was performed. In the same manner as in Test Example 2, except that the high molecular weight fraction prepared as mentioned above was used as a sample, determination of fluorescent AGEs was performed.
(§2) Amino acid, carbohydrates and a phosphate buffer solution were charged in a 50 mL polypropylene centrifuge tube in each amount shown in Table 10, followed by sealing and stirring, and then the mixture was reacted in an incubator at 37° C. for 42 days. Next, the reactant was filtered through a 0.2 μm filter and the obtained filtrate was used as a sample. Amino acid and carbohydrates used are as follows:
After weighing 2.5 mg of a standard substance perylene, the standard substance perylene was fully dissolved in 50 mL of deaerated ethanol added thereto to prepare a perylene solution. The perylene solution diluted to the concentration of 10 μM was exposed to excitation light with a wavelength of 386 nm and then the area was calculated by measuring a fluorescence intensity ranging from 410 to 600 nm. Meanwhile, the sample was exposed to excitation light with a wavelength of 380 nm and then the area was calculated by measuring a fluorescence intensity ranging from 400 to 600 nm. By considering the area measurement value of the sample as a value relative to the area value of the 10 μM perylene solution, fluorescent AGEs were quantitatively determined.
Biological proteins, carbohydrates and a phosphate buffer solution are charged in a 50 mL polypropylene centrifuge tube in each amount shown in Table 12, followed by sealing and stirring, and then the mixture was reacted in an incubator at 37° C. for 42 days. Next, the reactant was fractionated by centrifugation at 3,000 rpm for 3 hours using an ultrafiltration unit (VIVA SPIN 20, manufactured by Sartorius Corporation). […]

pentosidine = experiment: Quantitative determination of pentosidine after reaction at 37° C. for 42 days; type: biochemical; conditions: for Pentosidine: 37° C., 42 days
Method: as §2
Using a pentosidine measurement kit “FSK Pentosidine (registered trademark)” (manufactured by Fushimi Pharmaceutical Co., Ltd.), quantitative determination of pentosidine was performed in the following manner. Thirty (30) or more minutes before use, reagents and pentosidine solid-phase plates were put to room temperature. After dilution of the sample, a 50 μL aliquot of the sample was dispensed to a pentosidine solid-phase plate attached to the kit, and 50 μL of a first antibody solution was dispensed into wells other than the wells for measurement of reagent blank value. After the sample and the antibody solution were mixed by shaking the plate at 300 rpm for 1 minute, the solution was reacted at 37° C. for 1 hour. Next, the reaction solution was discarded, and 200 μL of rinsing fluid was dispensed to wash the plate. The washing was performed for 3 times. After liquid on the plate was removed, 100 μl of a second antibody solution was dispensed into wells other than the wells for measurement of reagent blank value. After the solution was mixed by shaking the plate at 300 rpm for 1 minute, the solution was reacted at 25° C. for 1 hour. Then, the reaction solution was discarded, and the plate was washed for 3 times with 200 μL of rinsing fluid again. Liquid on the plate was removed, and 100 μL of a color coupler was dispensed and left to stand for 10 minutes under a light shielding condition. Finally, 100 μL of a reaction stop solution was dispensed, and within 10 minutes after the dispensing, measurement was performed at main wavelength 450 nm/reference wavelength 630 nm using a micro-plate reader. The concentration of pentosidine was determined using the calibration curve of a pentosidine standard solution, based on measurement values of the sample.
as §1, with “Biological proteins,” for “Amino acid or biological protein,”, “are” for “were”, “12,” for “8,”, “AGEs, pentosidine, CML, RAGE agonist activity and RAGE antagonist activity. Biological proteins” for “AGEs. Amino acid, biological protein”
In the same manner as in Test Example 4, except that the low molecular weight fraction prepared as mentioned above was used as a sample, quantitative determination of 3-DG was performed. In the same manner as in Test Example 4, except that the high molecular weight fraction was filtered through a 0.2 μm filter and the filtrate was used as a sample, fluorescent AGEs, pentosidine, CML, RAGE agonist activity and RAGE antagonist activity were evaluated.
as §1, with “Collagen,” for “Amino acid or biological protein,”, “14,” for “8,”, “3-DG. […]” for “3-DG, while the obtained high molecular weight fraction was used as a sample for the determination of fluorescent AGEs. Amino acid, biological protein and carbohydrates used are as follows:”

[1] = Test Example 3, amino acid (lysine:arginine 1:1) 0.4 g + glucose 1.8 g or maltitol 3.4 g
[2] = Test Example 3, bovine serum albumin 0.4 g + glucose 1.8 g or maltitol 3.4 g
[3] = Test Example 4, amino acid 0.4 g + carbohydrate 1.8 g
[4] = Test Example 5, bovine serum albumin 0.4 g + carbohydrate 1.8 g
[5] = Test Example 5, human serum albumin 0.4 g + carbohydrate 1.8 g
[6] = Test Example 5, γ-globulin 0.4 g + carbohydrate 1.8 g
[7] = Test Example 6, collagen 0.015 g + carbohydrate 1.8 g, hydrolysed high molecular weight fraction
[8] = Test Example 4, amino acid, compared with sections containing glucose and fructose
[9] = Test Example 5, bovine serum albumin, human serum albumin, γ-globulin, compared with sections containing fructose
[10] = Test Example 5, bovine serum albumin, human serum albumin, γ-globulin, compared with sections containing glucose
[11] = Test Example 6, collagen, compared with sections containing glucose and fructose

Structure (SMILES) | Fluorescent AGEs (fluorescent AGEs; [1]) | Fluorescent AGEs (fluorescent AGEs; [2]) | Fluorescent AGEs (fluorescent AGEs; [3]) | Fluorescent AGEs (fluorescent AGEs; [4]) | Fluorescent AGEs (fluorescent AGEs; [5]) | Fluorescent AGEs (fluorescent AGEs; [6]) | Fluorescent AGEs (fluorescent AGEs; [7]) | Pentosidine (pentosidine; [3]) | Pentosidine (pentosidine; [4]) | Pentosidine (pentosidine; [5]) | Pentosidine (pentosidine; [6]) | Pentosidine (pentosidine; [7]) | other results
O=C[C@H](O)[C@@H](O)[C@H](O)[C@H](O)CO [Glucose] | 91 nmol/1 g of protein | 46 nmol/1 g of protein | 17.4 nmol/1 mL of reaction solution | 11 nmol/1 mL of reaction solution | 8.6 nmol/1 mL of reaction solution | 3.0 nmol/1 mL of reaction solution | 1.4 nmol/1 mL of reaction solution | 5.8 nmol/1 mL of reaction solution | 0.01 nmol/1 mL of reaction solution | 0.02 nmol/1 mL of reaction solution | 0.002 nmol/1 mL of reaction solution | 0.06 nmol/1 mL of reaction solution | –
OC[C@@H](O)[C@@H](O[C@H]1O[C@H](CO)[C@@H](O)[C@H](O)[C@H]1O)[C@H](O)[C@@H](O)CO [Maltitol] | 2 nmol/1 g of protein | 7 nmol/1 g of protein | – | – | – | – | – | – | – | – | – | – | production of AGEs (fluorescent AGEs; Test Example 3, amino acids and bovine serum albumin, compared with sections containing glucose): decreased
O=C(CO)[C@@H](O)[C@H](O)[C@H](O)CO [Fructose] | – | – | 11.4 nmol/1 mL of reaction solution | 28 nmol/1 mL of reaction solution | 25.2 nmol/1 mL of reaction solution | 17.3 nmol/1 mL of reaction solution | 2.4 nmol/1 mL of reaction solution | 24.7 nmol/1 mL of reaction solution | 0.03 nmol/1 mL of reaction solution | 0.05 nmol/1 mL of reaction solution | 0.005 nmol/1 mL of reaction solution | 0.15 nmol/1 mL of reaction solution | –
OC[C@@H](O)[C@@H](O)[C@H](O)[C@@H](O)CO [Sorbitol] | – | – | 0.4 nmol/1 mL of reaction solution | 2.0 nmol/1 mL of reaction solution | 5.4 nmol/1 mL of reaction solution | 1.3 nmol/1 mL of reaction solution | 0.5 nmol/1 mL of reaction solution | 0.8 nmol/1 mL of reaction solution | 0.03 nmol/1 mL of reaction solution | 0.02 nmol/1 mL of reaction solution | 0.002 nmol/1 mL of reaction solution | 0.05 nmol/1 mL of reaction solution | production of fluorescent AGEs (fluorescent AGEs; [8]): decreased; production of fluorescent AGEs (fluorescent AGEs; [9]): decreased; production of fluorescent AGEs (fluorescent AGEs; [10]): decreased; production of fluorescent AGEs (fluorescent AGEs; [11]): decreased; production of pentosidine (pentosidine; [8]): decreased; production of pentosidine (pentosidine; [9]): decreased; production of pentosidine (pentosidine; [10]): decreased; production of pentosidine (pentosidine; [11]): decreased
